Measured values taken from patent publication US20110269799A1 (priority 2008, published 2011).
Several values for one entry are separate records, joined by “and”; a condition that tells them apart may be missing. Equal entries are not always repeated. Where two headings read alike, the source gives them in different places.

Experiments:
[1] = test system: patients with chronic atrial fibrillation; test: PETRO phase 2 12-week dose finding study, dabigatran etexilate alone or with aspirin vs. warfarin; assay type: in vivo, human; settings: 12 weeks
From the text: Primary endpoints were bleeding events and changes in D-dimer. […] Minor bleeding was dose related.

[2] = test system: patients with atrial fibrillation at risk of stroke
From the text: Median follow-up was 2.0 years and the primary outcome was stroke or systemic embolism.
Patients were recruited from 951 clinical centers in 44 countries. In brief, patients were eligible if they had atrial fibrillation documented on electrocardiogram at screening or within 6 months; and at least one of the following: prior stroke or transient ischemic attack; left ventricular ejection fraction less than 40%; New York Heart Association heart failure symptoms of Class 2 or greater within 6 months; age at least 75 years; or age at least 65 years with diabetes mellitus, hypertension or coronary artery disease.
The time in therapeutic range was calculated by the method of Rosendaal (Rosendaal F R, et al., A method to determine the optimal intensity of oral anticoagulant therapy, Thromb Haemost, 1993, 69:236-239), excluding INRs from the first week and after discontinuations. […] Concomitant use of aspirin (less than 100 mg/day) or other antiplatelet agents was allowed.
Liver function testing was performed monthly during the first year of follow-up.
The primary study outcome was stroke or systemic embolism. The primary safety outcome was major hemorrhage. Secondary outcomes were stroke, systemic embolism and death. Other outcomes were myocardial infarction, pulmonary embolism, transient ischemic attacks, and hospitalizations. The primary net benefit-risk outcome was the composite of stroke, systemic embolism, pulmonary embolism, myocardial infarction, death or major hemorrhage. Stroke was defined as sudden onset of focal neurological deficit consistent with the territory of a major cerebral artery and categorized as ischemic, hemorrhagic or unspecified. Hemorrhagic transformation of ischemic stroke was not considered as hemorrhagic stroke. Intracranial hemorrhage included hemorrhagic stroke and sub-dural or sub-arachnoid hemorrhage. Systemic embolism was an acute vascular occlusion of an extremity or organ documented by imaging, surgery or autopsy. Major bleeding was defined as a reduction in hemoglobin level of at least […] or transfusion of at least 2 units of blood or symptomatic bleeding in a critical area or organ. Life-threatening bleeding was a subset of major bleeding that included fatal bleeding, symptomatic intracranial bleeding, bleeding with hemoglobin decrease of more than […] or requiring transfusion of more than 4 units of blood or requiring inotropic agents or necessitating surgery. All other bleeding was considered minor.
All primary and secondary outcome events were blindly and doubly adjudicated. An international team of adjudicators reviewed documents in local languages after blinding; or documents were translated by a independent group and blinded centrally. All transient ischemic attacks were reviewed to ensure that strokes had not been missed. To detect possible unreported events, symptom questionnaires were regularly administered to patients, and adverse events and hospitalization reports were scrutinized for unreported primary or secondary outcomes.
If maximum of the two p-values was greater than 0.025, the minimum of the two p-values must be less than 0.0125, one-sided, to claim statistical significance. All analyses were based on intention-to-treat.

[3] = test system: patients with atrial fibrillation
Procedure: PETRO-Ex began while the PETRO study was ongoing and investigators were initially kept blinded to patient treatment group until PETRO was completed. Unblinding investigators to patient treatment was possible thereafter.
Data were summarized descriptively; no hypothesis was to be tested. Events were analyzed on the basis of the treatment at onset. Incidences were reported as number of patients with events as well as normalized to 100 patient-years on the respective treatment.
Patients who completed PETRO on 50 mg b.i.d. were switched to 150 mg q.d. upon entry in the PETRO-Ex study (N=93 patients). […] Patients who were down titrated to 50 mg q.d. based on a glomerular filtration rate<50 mL/min during PETRO were excluded from the long-term trial; patients down-titrated in other dose levels remained on the q.d. treatment at that dose.

[4] = individual patients with LFT abnormalities, one patient (age, sex) per table line

[H]/N=C(/N)c1ccc(NCc2nc3cc(C(=O)N(CCC(=O)O)c4ccccn4)ccc3n2C)cc1 [Dabigatran]
Change in D-dimer levels [1]: comparable to warfarin
Rate of hemorrhagic stroke ([2]; 110 mg b.i.d.): 0.12 % per year
Stroke, Ischemic or Unspecified, Rate ([2]; 110 mg b.i.d.): 1.35 /100 Person Years
Stroke, systemic embolism, pulmonary embolism, myocardial infarction death or major bleed (net benefit), Rate ([2]; 110 mg b.i.d.): 7.37 /100 Person Years
Extracranial Bleeding, RR ([2]; 110 mg vs. Warfarin): 0.93
First Hospitalization, RR ([2]; 110 mg vs. Warfarin): 0.92
Non-disabling Stroke Modified Rankin 0-2, RR ([2]; 110 mg vs. Warfarin): 0.87
Stroke or systemic embolism, RR ([2]; 110 mg vs. Warfarin): 0.91
Stroke, Hemorrhagic, RR ([2]; 110 mg vs. Warfarin): 0.31
Stroke, RR ([2]; 110 mg vs. Warfarin): 0.92
Stroke, systemic embolism, pulmonary embolism, myocardial infarction death or major bleed (net benefit), RR ([2]; 110 mg vs. Warfarin): 0.92
Rate of hemorrhagic stroke ([2]; 150 mg b.i.d.): 0.10 % per year
Stroke, systemic embolism, pulmonary embolism, myocardial infarction death or major bleed (net benefit), Rate ([2]; 150 mg b.i.d.): 7.22 /100 Person Years
Stroke, Ischemic or Unspecified, RR ([2]; 150 mg vs. 110 mg): 0.68
Stroke, RR ([2]; 150 mg vs. 110 mg): 0.70
Stroke, systemic embolism, pulmonary embolism, myocardial infarction death or major bleed (net benefit), RR ([2]; 150 mg vs. 110 mg): 0.98
First Hospitalization, RR ([2]; 150 mg vs. Warfarin): 0.97
Major Bleeding, Other Major, RR ([2]; 150 mg vs. Warfarin): 1.07
Non-disabling Stroke Modified Rankin 0-2, RR ([2]; 150 mg vs. Warfarin): 0.62
Stroke or systemic embolism, RR ([2]; 150 mg vs. Warfarin): 0.66
Stroke, Hemorrhagic, RR ([2]; 150 mg vs. Warfarin): 0.26
Stroke, Ischemic or Unspecified, RR ([2]; 150 mg vs. Warfarin): 0.76
Stroke, RR ([2]; 150 mg vs. Warfarin): 0.64
Stroke, systemic embolism, pulmonary embolism, myocardial infarction death or major bleed (net benefit), RR ([2]; 150 mg vs. Warfarin): 0.90
Hepatotoxicity in serial measurement of liver function tests ([2]; in vivo): no evidence of hepatotoxicity
Fatal bleeding events, rate ([3]; all doses): 0.5 % per year
LFT abnormality ALT/ULN [3, 4]: >5x x ULN (4×) and >5x^# x ULN (2×) and >3x x ULN (5×) and >3x^# x ULN
LFT abnormality AST/ULN [3, 4]: >5x^# x ULN (4×) and >5x x ULN (4×) and >3x x ULN (5×)
